Measured values taken from EP4516309A1, “CRHR1 AGONISTS FOR USE IN THE TREATMENT OF SOCIAL ANXIETY DISORDERS” (Consejo Superior de Investigaciones Cientificas, priority 2023, dated 2025).

Molecular target: T1, inhibitory DREADD (Homo sapiens, UniProt P08173, A203G/Y113C)
T1 construct: host or cells: ILA CRH+ neurons of CRH-Cre mice, Cre-dependent AAV2/8 transduction in vivo
T1 sequence (P08173 1-479 Y113C/A203G): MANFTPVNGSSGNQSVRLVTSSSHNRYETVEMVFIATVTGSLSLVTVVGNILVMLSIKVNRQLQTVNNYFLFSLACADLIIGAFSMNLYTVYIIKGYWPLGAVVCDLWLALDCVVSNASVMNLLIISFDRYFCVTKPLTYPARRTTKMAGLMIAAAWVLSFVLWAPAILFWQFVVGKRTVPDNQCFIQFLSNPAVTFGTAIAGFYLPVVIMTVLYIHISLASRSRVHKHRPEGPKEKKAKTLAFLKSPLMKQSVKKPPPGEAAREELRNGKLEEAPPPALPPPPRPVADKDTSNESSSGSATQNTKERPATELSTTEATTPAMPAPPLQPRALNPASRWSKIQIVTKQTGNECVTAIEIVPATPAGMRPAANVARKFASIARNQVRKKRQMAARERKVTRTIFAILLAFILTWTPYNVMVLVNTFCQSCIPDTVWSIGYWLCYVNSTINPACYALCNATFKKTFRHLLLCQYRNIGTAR
Experiment: c-fos / mCherry overlap in ILA after familiar animal presentation, inhibitory DREADD
Type: in vivo, CRH-Cre mice
Details: CNO i.p. 30 min before familiar animal presentation; vs. saline
Protocol: Mice were anesthetized using isoflurane then perfused in the heart with 10 mL saline and their brains were quickly extracted and incubated in 4% PFA overnight. After 1 h washing in PBS, 60 µm slices were prepared using a Leica VT1000S vibratome (Leica Biosystems). Unless indicated otherwise, slices were permeabilized for 2h in PBS with 0.5% Triton-X100 (T9284, Sigma-Aldrich) in PBS before being incubated overnight at 4°C with primary antibodies diluted in PBS with 0.5% Triton-X in PBS. The slices were washed in PBS for 1 h then incubated overnight at 4°C with secondary antibodies from Thermo-Fisher Scientific at a concentration of 1:500 diluted in PBS with 0.1% Triton-X. Hoechst counterstain was applied (Hoechst 33342 at 1:1000 for 30 min in PBS at RT) prior to mounting the slice using fluoromount (Sigma-Aldrich). Images were acquired using inverted confocal microscopes (Ism 900, Zeiss and SPII, Leica) or an epifluorescent microscope (Thunder, Leica). For post-hoc immunocytochemistry after patch-clamp recordings, slices were fixed for 1 h in PBS with 4% PFA and streptavidin was applied during secondary incubation. • For mRuby and GFP labelling, primary incubation was performed overnight at 4°C with rabbit anti-RFP (1:500, Rockland Antibody, #600-401-379) and chicken anti-GFP (1:1000, Aves, #GFP-1020) antibodies. […]

`C[N+]1([O-])CCN(C2=Nc3cc(Cl)ccc3Nc3ccccc32)CC1` [CNO, clozapine N-oxide] was tested. Which “c-fos/mCherry+ cells in ILA” value did it give?
The value was “less c-fos/mCherry+ cells compared to the saline control”.
